The results in this text go back to PubChem BioAssay (NCI).

Where “and” joins values, the source holds several entries; their conditions need not be identical. Equal entries are not always repeated.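 Following 48 hours of exposure in 96-well plates, responses at five concentrations were used to interpolate endpoints linearly. Here, GI50 denotes the concentration required for 50% inhibition of growth. TGI marks complete inhibition of growth.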

Among the test systems are M14 melanoma; MALME-3M melanoma; MCF7 breast; MDA-MB-231 breast; NCI-H522 lung; SF-268 CNS; SK-MEL-2 melanoma; SNB-19 CNS; U251 CNS; UACC-62 melanoma.
What all share (assay): NCI anticancer screen, dose series, 48 h

As for `CCOC(=O)Nc1c(C)nc2ccccn12`, the GI50 in the assay on M14 melanoma, with MALME-3M melanoma, in the assay on MCF7 breast, with MDA-MB-231 breast, in the assay with NCI-H522 lung and in the assay with SF-268 CNS was over 100 µM throughout. Further, the GI50 in the assay on SK-MEL-2 melanoma, with SNB-19 CNS, in the assay with U251 CNS and in the assay with UACC-62 melanoma was over 100 µM in each case. Also, the TGI with M14 melanoma, in the assay on MALME-3M melanoma, in the assay with MCF7 breast, in the assay on MDA-MB-231 breast, in the assay on NCI-H522 lung and with SF-268 CNS was over 100 µM throughout. Also, the TGI in the assay with SK-MEL-2 melanoma, in the assay on SNB-19 CNS, in the assay on U251 CNS and with UACC-62 melanoma was over 100 µM throughout.
As for `Cc1cccc(NC2=C(Cl)C(=O)c3nc(C)ccc3C2=O)c1`, the GI50 in the assay with M14 melanoma was 1.32 µM; in the assay on MALME-3M melanoma, 1.65 µM; with MCF7 breast it was 0.656 µM; in the assay with MDA-MB-231 breast it was 0.904 µM; with NCI-H522 lung it was 1.81 µM; with SF-268 CNS, 2.1 µM. The GI50 in the assay on SK-MEL-2 melanoma is 1.93 µM; in the assay on SNB-19 CNS it was 1.29 µM; in the assay with U251 CNS, 1.09 µM; in the assay on UACC-62 melanoma it was 1.13 µM. Further, the TGI with M14 melanoma was 2.72 µM; in the assay with MALME-3M melanoma it was 3.07 µM; in the assay with MCF7 breast, 3.06 µM; in the assay with MDA-MB-231 breast it was 2.42 µM; in the assay with NCI-H522 lung, 4.88 µM; with SF-268 CNS it was 6.4 µM. Further, the TGI in the assay on SK-MEL-2 melanoma was determined as 4.19 µM; with SNB-19 CNS it was 10.3 µM; in the assay on U251 CNS it was 2.67 µM; in the assay with UACC-62 melanoma it was 2.49 µM.
As to `COc1cc(/C=C2\CCCCC3=C2N=C2SC(C)=CN2C3c2cc(OC)c(OC)c(OC)c2)cc(OC)c1OC` (stereo unspecified), the GI50 with M14 melanoma is 23.7 µM; with MALME-3M melanoma it was 15.2 µM; in the assay with MCF7 breast, 22.6 µM; with MDA-MB-231 breast, 4.24 µM; with NCI-H522 lung, 1.32 µM; in the assay with SF-268 CNS it was 36.7 µM. Also, the GI50 was 9.91 µM with SK-MEL-2 melanoma, over 100 µM in the assay with SNB-19 CNS, 19.2 µM in the assay with U251 CNS and 3.26 µM in the assay on UACC-62 melanoma. Moreover, the TGI with M14 melanoma, in the assay on MALME-3M melanoma, with MCF7 breast, in the assay with MDA-MB-231 breast, in the assay on NCI-H522 lung and in the assay on SF-268 CNS was over 100 µM each time. The TGI in the assay on SK-MEL-2 melanoma, with SNB-19 CNS, in the assay on U251 CNS and with UACC-62 melanoma was over 100 µM each time.
As for `CCn1cc(-c2ccnc3[nH]c(-c4cccc(CN(C)C)c4)cc23)c(-c2ccc(NC(=O)N(C)C)cc2)n1`, the GI50 is 1.91 µM and 2.31 µM in the assay with M14 melanoma; 12 µM and > 10 µM in the assay with MALME-3M melanoma; 0.487 µM and 0.312 µM in the assay with MCF7 breast; 3.52 µM and 2.95 µM in the assay on MDA-MB-231 breast; 3.03 µM and 2.07 µM in the assay on SF-268 CNS; 2.43 µM and 2.19 µM in the assay on SK-MEL-2 melanoma. Also, the GI50 with SNB-19 CNS was 10 µM and > 10 µM; in the assay with U251 CNS, 2.34 µM and 4.03 µM; with UACC-62 melanoma, 2.49 µM and 5.74 µM. In addition, the TGI with M14 melanoma is 16.9 µM and > 10 µM; in the assay on MALME-3M melanoma, 29.3 µM and > 10 µM; in the assay on MCF7 breast, 19.4 µM and > 10 µM; with MDA-MB-231 breast it was 19.8 µM and > 10 µM; with NCI-H522 lung it was 20 µM and > 10 µM; in the assay with SF-268 CNS, 20.9 µM and > 10 µM. For the same compound, the TGI was 9.87 µM and > 10 µM with SK-MEL-2 melanoma; 45 µM and > 10 µM in the assay on SNB-19 CNS; 19.1 µM and > 10 µM with U251 CNS; 22.5 µM and > 10 µM in the assay with UACC-62 melanoma.
In the case of `Cc1cc(C(=O)CSC(=S)SC(C)(C)C)ccc1Cl`, the TGI in the assay on M14 melanoma was 30.4 µM; in the assay with MALME-3M melanoma, 33.4 µM; in the assay with MCF7 breast, over 100 µM; in the assay with MDA-MB-231 breast, 36.4 µM; in the assay on NCI-H522 lung, 30.3 µM; with SF-268 CNS, 33.1 µM. Also, the TGI in the assay on SK-MEL-2 melanoma amounted to 35 µM; in the assay on SNB-19 CNS, 32 µM; with U251 CNS, 28.3 µM; in the assay with UACC-62 melanoma it was 30.1 µM.
For `CC[C@]1(O)C[C@H]2CN(CCc3c([nH]c4ccccc34)C(C(=O)OC)(c3cc4c(cc3OC)N(C)[C@H]3[C@@](O)(C(=O)OC)[C@H](OC(C)=O)[C@]5(CC)[C@@H]6C[C@@H]6CN6CC[C@]43[C@@H]65)C2)C1` (stereo partly specified), the GI50 in the assay with M14 melanoma is 0.00365 µM; in the assay with MALME-3M melanoma, 0.00659 µM; with MCF7 breast it was 0.0019 µM; in the assay on MDA-MB-231 breast, 0.0075 µM; in the assay with NCI-H522 lung it was under 0.00143 µM; in the assay on SF-268 CNS, 0.0145 µM. The GI50 in the assay on SK-MEL-2 melanoma was under 0.00143 µM; in the assay with SNB-19 CNS, 0.00667 µM; in the assay with U251 CNS it was 0.00344 µM; in the assay with UACC-62 melanoma it was 0.0022 µM. Besides, the TGI in the assay on M14 melanoma was 0.254 µM; in the assay with MALME-3M melanoma it was over 8.73 µM; in the assay with MCF7 breast, over 14.3 µM; with MDA-MB-231 breast, 0.239 µM; in the assay with NCI-H522 lung, 0.00528 µM; with SF-268 CNS, 10.4 µM. In addition, the TGI is 0.143 µM with SK-MEL-2 melanoma, over 14.3 µM in the assay with SNB-19 CNS, 0.527 µM in the assay on U251 CNS and over 14.3 µM in the assay on UACC-62 melanoma.
Take `COc1ccc2c(=O)oc3c(OC)cc(CCN(C)C)c4c(=O)oc1c2c34`: the TGI is 31.2 µM and 18.2 µM in the assay on M14 melanoma; 28.5 µM in the assay with MALME-3M melanoma; 12.9 µM with MCF7 breast; 16.1 µM with MDA-MB-231 breast; 25.6 µM and 13.9 µM in the assay on NCI-H522 lung; 28.4 µM and 16.6 µM in the assay with SF-268 CNS. For the same compound, the TGI is 33.1 µM and 29 µM in the assay on SK-MEL-2 melanoma; 29.2 µM and 21.4 µM with SNB-19 CNS; 27.6 µM and 19 µM in the assay with U251 CNS; 31.7 µM and 16.6 µM in the assay on UACC-62 melanoma.
As to `COc1c2occc2c(N)c2ccc(=O)oc12`, the TGI in the assay with M14 melanoma, with MALME-3M melanoma, in the assay with MCF7 breast, in the assay on MDA-MB-231 breast, in the assay on NCI-H522 lung and in the assay with SF-268 CNS was over 100 µM each time. Further, the TGI with SK-MEL-2 melanoma, with SNB-19 CNS, with U251 CNS and with UACC-62 melanoma was over 100 µM throughout.
As for `Nc1nc(Cl)nc2c1ncn2C1CC(O)C(CO)O1` (stereo unspecified), the GI50 with M14 melanoma was 0.186 µM; in the assay with MDA-MB-231 breast, over 79.8 µM. In addition, the TGI in the assay on M14 melanoma was 0.509 µM; in the assay with MALME-3M melanoma, over 100 µM; with MCF7 breast it was over 100 µM; with MDA-MB-231 breast, over 100 µM; in the assay on NCI-H522 lung, over 100 µM; with SF-268 CNS it was over 95.7 µM. The TGI is over 100 µM with SK-MEL-2 melanoma, over 100 µM in the assay with SNB-19 CNS, over 96.5 µM in the assay with U251 CNS and 6.15 µM in the assay on UACC-62 melanoma.
As to `COc1cc2c3c(n(C)c(=O)c2cc1OC)-c1cc2c(cc1C3=O)OCO2`, the TGI was over 100 µM in the assay with M14 melanoma; over 100 µM in the assay on MALME-3M melanoma; over 100 µM with MCF7 breast; over 100 µM in the assay on MDA-MB-231 breast; 34.8 µM in the assay on NCI-H522 lung; over 100 µM in the assay with SF-268 CNS. For the same compound, the TGI with SK-MEL-2 melanoma was over 72.2 µM; in the assay with SNB-19 CNS, over 100 µM; with U251 CNS it was over 100 µM; in the assay on UACC-62 melanoma, 32.4 µM.
`O=[N+]([O-])c1cccnc1N=Nc1c(O)[nH]c2ccccc12`: the TGI in the assay with M14 melanoma was 58.1 µM; with MALME-3M melanoma, 56.3 µM; in the assay on MCF7 breast, 20.6 µM; in the assay on MDA-MB-231 breast, over 100 µM; with NCI-H522 lung, 69.3 µM; with SF-268 CNS, over 100 µM. Moreover, the TGI in the assay on SK-MEL-2 melanoma was 53.4 µM; with SNB-19 CNS, 58.5 µM; in the assay on U251 CNS it was over 100 µM; in the assay on UACC-62 melanoma it was 23 µM.
